# Tests used:
# Test in all cases: Test E greenhouse herbicide test, pre- and postemergence
# Format in all cases: in vivo
# [1] = system: momingglory (Ipomoea coccinea); conditions: Preemergence
# Text: (§1) Seeds of plant species selected from corn (Zea mays), soybean (Glycine max), velvetleaf (Abutilon theophrasti), lambsquarters (Chenopodium album), wild poinsettia (Euphorbia heterophylla), pigweed, palmer (palmer pigweed, Amaranthus palmeri), waterhemp (common waterhemp, Amaranthus rudis), surinam grass (Brachiaria decumbens), crabgrass, large (large crabgrass, Digitaria sanguinalis), crabgrass, Brazilian (Brazilian crabgrass, Digitaria horizontalis), panicum, fall (fall panicum, Panicum dichotomiflorum), foxtail, giant (giant foxtail, Setaria faberii), foxtail, green (green foxtail, Setaria viridis), goosegrass (Eleusine indica), johnsongrass (Sorghum halepense), ragweed (common ragweed, Ambrosia elatior), barnyardgrass (Echinochloa crus-galli), sandbur (southem sandbur, Cenchrus echinatus), arrowleaf sida (Sida rhombifolia), Italian ryegrass (Lolium multiflorum), dayflower (Virginia (VA) dayflower, Commelina virginica), field bindweed (Convolvulus arvensis), momingglory (Ipomoea coccinea), nightshade (eastern black nightshade, Solanum ptycanthum), kochia (Kochia scoparia), nutsedge, yellow (yellow nutsedge, Cyperus esculentus), horseweed (Conyza canadensis), and beggarticks (hairy beggarticks, Bidens pilosa), were planted into a silt loam soil and treated preemergence with test chemicals formulated in a non-phytotoxic solvent mixture which included a surfactant.
# (§2) At the same time, plants from these crop and weed species and also waterhemp_RES1, (ALS & Triazine resistant common waterhemp, Amaranthus rudis), and waterhemp_RES2, (ALS & HPPD resistant common waterhemp, Amaranthus rudis) were planted in pots containing Redi-Earth® planting medium (Scotts Company, 14111 Scottslawn Road, Marysville, Ohio 43041) comprising spaghnum peat moss, vermiculite, wetting agent and starter nutrients were treated with postemergence applications of test chemicals formulated in the same manner. Plants ranged in height from 2 to 18 cm for postemergence treatments (1- to 4-leaf stage). Treated plants and controls were maintained in a greenhouse for 14 to 21 d, after which time all species were compared to controls and visually evaluated. Plant response ratings, summarized in Table E, are based on a scale of 0 to 100 where 0 is no effect and 100 is complete control. A dash (-) response means no test result.
# [2] = system: Italian ryegrass (Lolium multiflorum)
# Text: as §1, §2
# [3] = system: sandbur (southem sandbur, Cenchrus echinatus)
# Text: as §1, §2
# [4] = system: goosegrass (Eleusine indica); conditions: Preemergence
# Text: as §1, §2
# [5] = system: ragweed (common ragweed, Ambrosia elatior); conditions: Preemergence
# Text: as §1, §2
# [6] = system: panicum, fall (fall panicum, Panicum dichotomiflorum)
# Text: as §1, §2
# [7] = system: crabgrass, Brazilian (Brazilian crabgrass, Digitaria horizontalis)
# Text: as §1, §2
# [8] = system: barnyardgrass (Echinochloa crus-galli)
# Text: as §1, §2
# [9] = system: foxtail, green (green foxtail, Setaria viridis); conditions: Preemergence
# Text: as §1, §2
# [10] = system: nutsedge, yellow (yellow nutsedge, Cyperus esculentus); conditions: Preemergence
# Text: as §1, §2
# [11] = system: arrowleaf sida (Sida rhombifolia)
# Text: as §1, §2
# [12] = system: dayflower (Virginia (VA) dayflower, Commelina virginica)
# Text: as §1, §2
# corn (Zea mays) = system: corn (Zea mays)
# Text: as §1, §2
# soybean (Glycine max) = system: soybean (Glycine max)
# Text: as §1, §2
# [13] = 62 g ai/ha, scale 0 to 100 (0 no effect, 100 complete control)
# [14] = 125 g ai/ha, scale 0 to 100 (0 no effect, 100 complete control)
# [15] = 16 g ai/ha, scale 0 to 100, 0 no effect, 100 complete control
# [16] = 31 g ai/ha, scale 0 to 100, 0 no effect, 100 complete control
# [17] = 250 g ai/ha, visual, scale 0 no effect to 100 complete control
# [18] = 62 g ai/ha, Postemergence, scale 0 to 100 (0 no effect, 100 complete control)
# [19] = 62 g ai/ha, Preemergence, scale 0 to 100 (0 no effect, 100 complete control)
# [20] = 125 g ai/ha, Postemergence, scale 0 to 100 (0 no effect, 100 complete control)
# [21] = 125 g ai/ha, Preemergence, scale 0 to 100 (0 no effect, 100 complete control)
# [22] = 250 g ai/ha, Postemergence, scale 0 to 100 (0 no effect, 100 complete control)
# [23] = Postemergence, 16 g ai/ha, visual, scale 0 no effect to 100 complete control
# [24] = Postemergence, 31 g ai/ha, visual, scale 0 no effect to 100 complete control
# [25] = Preemergence, 16 g ai/ha, scale 0 to 100, 0 no effect, 100 complete control
# [26] = Preemergence, 31 g ai/ha, scale 0 to 100, 0 no effect, 100 complete control
# [27] = Preemergence, 250 g ai/ha, visual, scale 0 no effect to 100 complete control
# [28] = 125 g ai/ha, visual, scale 0 no effect to 100 complete control
# [29] = Preemergence, 125 g ai/ha, visual, scale 0 no effect to 100 complete control
compound,measurement,setting,value
"Cc1cc(C)c2sc(C)c(-c3c(O)c(C)nn(C)c3=O)c2c1 [Compound 2, 5-hydroxy-2,6-dimethyl-4-(2,5,7-trimethylbenzo[b]thien-3-yl)-3(2H)-pyridazinone]","Plant response rating, Morningglory",[1]; [13],90
same,"Plant response rating, Morningglory",[1]; [14],100
same,"Plant response rating, Morningglory",[1]; [15],0
same,"Plant response rating, Morningglory",[1]; [16],75
same,"Plant response rating, Morningglory",[1]; [17],100
same,"Plant response rating, Ryegrass, Italian",[2]; [18],50
same,"Plant response rating, Ryegrass, Italian",[2]; [19],98
same,"Plant response rating, Ryegrass, Italian",[2]; [20],65
same,"Plant response rating, Ryegrass, Italian",[2]; [21],100
same,"Plant response rating, Ryegrass, Italian",[2]; [22],75
same,"Plant response rating, Ryegrass, Italian",[2]; [23],20
same,"Plant response rating, Ryegrass, Italian",[2]; [24],30
same,"Plant response rating, Ryegrass, Italian",[2]; [25],50
same,"Plant response rating, Ryegrass, Italian",[2]; [26],95
same,"Plant response rating, Ryegrass, Italian",[2]; [27],100
same,"Plant response rating, Sandbur",[3]; [18],15
same,"Plant response rating, Sandbur",[3]; [19],15
same,"Plant response rating, Sandbur",[3]; [20],20
same,"Plant response rating, Sandbur",[3]; [21],70
same,"Plant response rating, Sandbur",[3]; [22],30
same,"Plant response rating, Sandbur",[3]; [23],5
same,"Plant response rating, Sandbur",[3]; [24],10
same,"Plant response rating, Sandbur",[3]; [25],0
same,"Plant response rating, Sandbur",[3]; [26],15
same,"Plant response rating, Sandbur",[3]; [27],75
same,"Plant response rating, Goosegrass",[4]; [13],5
same,"Plant response rating, Goosegrass",[4]; [15],0
same,"Plant response rating, Goosegrass",[4]; [16],0
same,"Plant response rating, Goosegrass",[4]; [28],25
same,"Plant response rating, Goosegrass",[4]; [17],25
same,"Plant response rating, Ragweed",[5]; [13],75
same,"Plant response rating, Ragweed",[5]; [14],98
same,"Plant response rating, Ragweed",[5]; [15],20
same,"Plant response rating, Ragweed",[5]; [16],35
same,"Plant response rating, Ragweed",[5]; [17],98
same,"Plant response rating, Panicum, Fall",[6]; [18],70
same,"Plant response rating, Panicum, Fall",[6]; [19],95
same,"Plant response rating, Panicum, Fall",[6]; [20],85
same,"Plant response rating, Panicum, Fall",[6]; [21],98
same,"Plant response rating, Panicum, Fall",[6]; [22],90
same,"Plant response rating, Panicum, Fall",[6]; [23],60
same,"Plant response rating, Panicum, Fall",[6]; [24],70
same,"Plant response rating, Panicum, Fall",[6]; [25],75
same,"Plant response rating, Panicum, Fall",[6]; [26],85
same,"Plant response rating, Panicum, Fall",[6]; [27],100
same,"Plant response rating, Crabgrass, Brazil",[7]; [18],0
same,"Plant response rating, Crabgrass, Brazil",[7]; [19],60
same,"Plant response rating, Crabgrass, Brazil",[7]; [20],10
same,"Plant response rating, Crabgrass, Brazil",[7]; [22],15
same,"Plant response rating, Crabgrass, Brazil",[7]; [23],0
same,"Plant response rating, Crabgrass, Brazil",[7]; [24],10
same,"Plant response rating, Crabgrass, Brazil",[7]; [25],0
same,"Plant response rating, Crabgrass, Brazil",[7]; [26],35
same,"Plant response rating, Crabgrass, Brazil",[7]; [29],50
same,"Plant response rating, Crabgrass, Brazil",[7]; [27],100
same,"Plant response rating, Barnyardgrass",[8]; [18],25
same,"Plant response rating, Barnyardgrass",[8]; [19],0
same,"Plant response rating, Barnyardgrass",[8]; [20],30
same,"Plant response rating, Barnyardgrass",[8]; [22],35
same,"Plant response rating, Barnyardgrass",[8]; [23],20
same,"Plant response rating, Barnyardgrass",[8]; [24],20
same,"Plant response rating, Barnyardgrass",[8]; [25],0
same,"Plant response rating, Barnyardgrass",[8]; [26],0
same,"Plant response rating, Barnyardgrass",[8]; [29],25
same,"Plant response rating, Barnyardgrass",[8]; [27],70
same,"Plant response rating, Foxtail, Green",[9]; [13],95
same,"Plant response rating, Foxtail, Green",[9]; [15],0
same,"Plant response rating, Foxtail, Green",[9]; [16],35
same,"Plant response rating, Foxtail, Green",[9]; [28],95
same,"Plant response rating, Foxtail, Green",[9]; [17],98
same,"Plant response rating, Nutsedge, Yellow",[10]; [13],35
same,"Plant response rating, Nutsedge, Yellow",[10]; [14],65
same,"Plant response rating, Nutsedge, Yellow",[10]; [15],0
same,"Plant response rating, Nutsedge, Yellow",[10]; [16],0
same,"Plant response rating, Nutsedge, Yellow",[10]; [17],70
same,"Plant response rating, Arrowleaf Sida",[11]; [18],30
same,"Plant response rating, Arrowleaf Sida",[11]; [19],0
same,"Plant response rating, Arrowleaf Sida",[11]; [20],35
same,"Plant response rating, Arrowleaf Sida",[11]; [22],40
same,"Plant response rating, Arrowleaf Sida",[11]; [23],0
same,"Plant response rating, Arrowleaf Sida",[11]; [24],25
same,"Plant response rating, Arrowleaf Sida",[11]; [25],0
same,"Plant response rating, Arrowleaf Sida",[11]; [26],0
same,"Plant response rating, Arrowleaf Sida",[11]; [29],0
same,"Plant response rating, Arrowleaf Sida",[11]; [27],5
same,"Plant response rating, Dayflower, VA",[12]; [18],15
same,"Plant response rating, Dayflower, VA",[12]; [19],20
same,"Plant response rating, Dayflower, VA",[12]; [20],65
same,"Plant response rating, Dayflower, VA",[12]; [22],65
same,"Plant response rating, Dayflower, VA",[12]; [23],0
same,"Plant response rating, Dayflower, VA",[12]; [24],20
same,"Plant response rating, Dayflower, VA",[12]; [25],0
same,"Plant response rating, Dayflower, VA",[12]; [26],15
same,"Plant response rating, Dayflower, VA",[12]; [29],25
same,"Plant response rating, Dayflower, VA",[12]; [27],90
same,"Plant response rating, Corn",corn (Zea mays); [18],0
same,"Plant response rating, Corn",corn (Zea mays); [19],0
same,"Plant response rating, Corn",corn (Zea mays); [20],5
same,"Plant response rating, Corn",corn (Zea mays); [22],5
same,"Plant response rating, Corn",corn (Zea mays); [23],0
same,"Plant response rating, Corn",corn (Zea mays); [24],0
same,"Plant response rating, Corn",corn (Zea mays); [25],0
same,"Plant response rating, Corn",corn (Zea mays); [26],0
same,"Plant response rating, Corn",corn (Zea mays); [29],0
same,"Plant response rating, Corn",corn (Zea mays); [27],0
same,"Plant response rating, Soybean",soybean (Glycine max); [18],0
same,"Plant response rating, Soybean",soybean (Glycine max); [19],0
same,"Plant response rating, Soybean",soybean (Glycine max); [20],0
same,"Plant response rating, Soybean",soybean (Glycine max); [21],15
same,"Plant response rating, Soybean",soybean (Glycine max); [22],0
same,"Plant response rating, Soybean",soybean (Glycine max); [23],0
same,"Plant response rating, Soybean",soybean (Glycine max); [24],0
same,"Plant response rating, Soybean",soybean (Glycine max); [25],0
same,"Plant response rating, Soybean",soybean (Glycine max); [26],0
same,"Plant response rating, Soybean",soybean (Glycine max); [27],40
